BindingDB's records for doi:10.1016/j.bmcl.2006.10.091 (Bristol Myers Squibb, 2007)

Assay: Inhibition of MDC-induced chemotaxis in L1.2 cells expressing CCR4

IC50: 5 µM
Compound: CCN(CC)C(C)CCCNc1nccc(NCc2ccc(Cl)cc2Cl)n1 (stereo unspecified) [N4-(2,4-dichlorobenzyl)-N2-(4-(diethylamino)pentyl)pyrimidine-2,4-diamine]
